Results: article PMC8226474, “Design, Syntheses, and Bioevaluations of Some Novel N^2-Acryloylbenzohydrazides as Chemostimulants and Cytotoxic Agents” (Medicines, 2021)

How the values were obtained:
Ramos cells = test: Cytotoxicity (CC50), Ramos cells; assay type: cell-based, human; conditions: for CC50: Homo sapiens, Ramos, 24 h incubation; for SI Ramos: average CC50 of non-malignant cells / CC50 Ramos
Method: (§1) In brief, the compounds were incubated for 24 h with the neoplasms, using DMEM and RPMI media. Three independent experiments were carried out.

NALM-60 cells = test: Cytotoxicity (CC50), NALM-60 cells; assay type: cell-based, human; conditions: for CC50: Homo sapiens, 24 h incubation; for SI NALM-60: average CC50 of non-malignant cells / CC50 NALM-60
Method: as §1

CEM cells = test: Cytotoxicity (CC50), CEM cells; assay type: cell-based, human; conditions: for CC50: Homo sapiens, CCRF-CEM, 24 h incubation; for SI CEM: average CC50 of non-malignant cells / CC50 CEM
Method: as §1

[1] = tested on: Ramos, NALM-60, CEM, HL-60, JURKAT, RAJI cells; test: Cytotoxicity (CC50), average over six leukemia/lymphoma cell lines; assay type: cell-based, human; conditions: for CC50: Homo sapiens, average over six neoplastic cell lines
Method: as §1

[2] = Cytotoxicity (CC50), non-malignant Hs27 foreskin cells; assay type: cell-based; conditions: human, 24 h incubation
Method: as §1

[3] = Cytotoxicity (CC50), non-malignant MCF-10A breast cells; assay type: cell-based; conditions: human, MCF-10A cells (non-malignant breast cells); 24 h incubation; read-out: Non-Malignant Cells CC50, MCF10A
Method: as §1

MCF-7 cells = test: Cytotoxicity assay, MCF-7 breast cancer cells; assay type: cell-based, human; conditions: Homo sapiens, MCF7, 48 h, read-out: percentage inhibition of MCF-7 cells
Source text: (§2) Evaluation of the cytotoxic properties of the compounds presented in Table 1, Table 2, Table 3 and Table 4 was undertaken using the procedure outlined in [7]. In brief, the HCT 116 cells were obtained from the ATCC and cultured in McCoy’s 5A medium. The CRL 1790 cells were obtained from the ATCC and cultured in Minimum Essential Medium. The MCF-7 and MDA-MBA-231 cells were obtained from the Saskatchewan Cancer Agency and cultured in DMEM. In each assay the culture medium was supplemented with 10% fetal bovine serum and 1% penicillin–streptomycin antibiotics. The time of the bioassays was 48 h, unless indicated otherwise. All determinations were carried out in triplicate on three different occasions.

[4] = Cytotoxicity (CC50), average over non-malignant cells; assay type: cell-based; conditions: human, Hs27 and MCF10A cells (non-malignant), average of both
Method: as §1

CRL 1790 cells = test: Cytotoxicity assay, non-malignant CRL 1790 colon cells; assay type: cell-based; conditions: Homo sapiens, 48 h, Table 2, read-out: Non-Malignant CRL 1790 Cells IC50
Source text: as §2

MDA-MB-231 cells = test: Cytotoxicity assay, MDA-MB-231 breast cancer cells; assay type: cell-based, human; conditions: Homo sapiens, MDA-MB-231, 48 h, read-out: percentage inhibition of MDA-MB-231 cells
Source text: as §2

JURKAT cells = test: Cytotoxicity (CC50), Jurkat cells; assay type: cell-based, human; conditions: for CC50: Homo sapiens, Jurkat, 24 h incubation; for SI JURKAT: average CC50 of non-malignant cells / CC50 JURKAT
Method: as §1

HCT 116 cells = test: Cytotoxicity assay, HCT 116 colon cancer cells; assay type: cell-based, human; conditions: for inhibition at 10 µM / inhibition at 100 µM: read-out: percentage inhibition of HCT 116 cells
Source text: as §2

HL-60 cells = test: Cytotoxicity (CC50), HL-60 cells; assay type: cell-based, human; conditions: for CC50: Homo sapiens, HL-60, 24 h incubation; for SI HL-60: average CC50 of non-malignant cells / CC50 HL-60
Method: as §1

RAJI cells = test: Cytotoxicity (CC50), Raji cells; assay type: cell-based, human; conditions: for CC50: Homo sapiens, Raji, 24 h incubation; for SI RAJI: average CC50 of non-malignant cells / CC50 RAJI
Method: as §1

| Compound | CC50 (Ramos cells) | SI Ramos (Ramos cells) | CC50 (NALM-60 cells) | SI NALM-60 (NALM-60 cells) | melting point | CC50 (CEM cells) | SI CEM (CEM cells) | Avg SI, neoplastic cells [1] | CC50 [1] | CC50 at 24 h [2] | CC50 at 24 h [3] | inhibition at 10 µM (MCF-7 cells) | inhibition at 100 µM (MCF-7 cells) | CC50 at 24 h [4] | inhibition at 10 µM (MDA-MB-231 cells) | inhibition at 100 µM (MDA-MB-231 cells) | CC50 (JURKAT cells) | SI JURKAT (JURKAT cells) | inhibition at 10 µM (HCT 116 cells; Homo sapiens, HCT-116, 48 h) | inhibition at 100 µM (HCT 116 cells; Homo sapiens, HCT-116, 48 h) | other results |
| --- | --- | --- | --- | --- | --- | --- | --- | --- | --- | --- | --- | --- | --- | --- | --- | --- | --- | --- | --- | --- | --- |
| C=CC(=O)NNC(=O)c1ccccc1 [1a, N^2-Acryloylbenzohydrazide] | 0.19 ± 0.01 µM | 67.9 | 2.74 ± 0.59 µM | 4.71 | 177 to 179 °C | 0.91 ± 0.48 µM | 14.2 | 16.1 | 2.64 µM | 12.1 ± 0.91 µM | 13.7 ± 1.1 µM | 5.47 ± 3.52% | 51.1 ± 2.87% | 12.9 µM | -12.2 ± 1.5% | 52.1 ± 2.04% | 3.52 ± 0.36 µM | 3.65 | 10.6 ± 1.7% | 94.1 ± 1.44% | IC50 (CRL 1790 cells): > 100 µM; IC50 (HCT 116 cells; Homo sapiens, HCT-116, Table 2, 48 h, read-out: Neoplastic Cells IC50, HCT 116): 36.9 ± 2.84 µM; SI (selectivity index) (HCT 116 cells; IC50 CRL 1790 / IC50 HCT 116, Table 2): >2.70; CC50 (HL-60 cells): 3.32 ± 0.26 µM; SI HL-60 (HL-60 cells): 3.89; CC50 (RAJI cells): 5.18 ± 0.35 µM; SI RAJI (RAJI cells): 2.49 |
| C=CC(=O)NNC(=O)c1ccc(Cl)cc1 [1d, N^2-Acryloyl-4-chlorobenzohydrazide] | 0.15 ± 0.02 µM | 57.9 | 2.86 ± 0.55 µM | 3.04 | 233 to 235 °C | 0.86 ± 0.07 µM | 10.1 | 14.2 | 1.76 µM | 10.5 ± 0.05 µM | 6.87 ± 0.48 µM | 3.59 ± 2.08% | 55.9 ± 2.82% | 8.69 µM | -12.3 ± 4.05% | 49.1 ± 2.04% | 1.07 ± 0.09 µM | 8.12 | -5.05 ± 2.36% | 82.3 ± 0.8% | CC50 (HL-60 cells): 2.9 ± 0.76 µM; SI HL-60 (HL-60 cells): 3.00; CC50 (RAJI cells): 2.71 ± 0.09 µM; SI RAJI (RAJI cells): 3.24 |
| C=CC(=O)NNC(=O)c1cc(Cl)ccc1Cl [1h, N^2-Acryloyl-2,5-dichlorobenzohydrazide] | 0.29 ± 0.05 µM | 47.2 | 3.34 ± 0.43 µM | 4.10 | 207 to 210 °C | 3.37 ± 0.18 µM | 4.07 | 11.0 | 3.44 µM | 14.4 ± 0.24 µM | 12.9 ± 0.95 µM | 14.7 ± 3.68% | 54.2 ± 3.42% | 13.7 µM | -5.95 ± 4.21% | 122 ± 2.9% | 2.5 ± 0.24 µM | 5.48 | 7.12 ± 1.51% | 87.7 ± 1.62% | CC50 (HL-60 cells): 5.62 ± 0.29 µM; SI HL-60 (HL-60 cells): 2.44; CC50 (RAJI cells): 5.5 ± 1.1 µM; SI RAJI (RAJI cells): 2.49 |
